Values joined by “and” are separate entries in the source; they are usually repeats but may differ in a detail not shown here. Equal entries are not always repeated. Blank lines part the entries; values can stand above or below the molecule they belong to.
Assays:
[1] = molecular target: T1, OCT3 (Homo sapiens, UniProt O75751); test: Stereoselective uptake into OCT3-overexpressing HEK293 cells; conditions: for Clint ± SEM / Stereoselectivity Vmax: OCT3; for Clint ± SEM: quotient of vmax over Km; for Stereoselectivity Vmax: ratio between enantiomers, given as for (S) or for 2; for selectivity ratio at 2 min: human, HEK293 cells stably overexpressing human OCT3;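 for all read-outs here: intracellular accumulation in HEK293 cells measured by chiral HPLC-MS/MS after a 2 min substrate exposure at 37 °C, uptake normalized to total protein (bicinchoninic acid assay)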
T1 sequence (O75751 1-556): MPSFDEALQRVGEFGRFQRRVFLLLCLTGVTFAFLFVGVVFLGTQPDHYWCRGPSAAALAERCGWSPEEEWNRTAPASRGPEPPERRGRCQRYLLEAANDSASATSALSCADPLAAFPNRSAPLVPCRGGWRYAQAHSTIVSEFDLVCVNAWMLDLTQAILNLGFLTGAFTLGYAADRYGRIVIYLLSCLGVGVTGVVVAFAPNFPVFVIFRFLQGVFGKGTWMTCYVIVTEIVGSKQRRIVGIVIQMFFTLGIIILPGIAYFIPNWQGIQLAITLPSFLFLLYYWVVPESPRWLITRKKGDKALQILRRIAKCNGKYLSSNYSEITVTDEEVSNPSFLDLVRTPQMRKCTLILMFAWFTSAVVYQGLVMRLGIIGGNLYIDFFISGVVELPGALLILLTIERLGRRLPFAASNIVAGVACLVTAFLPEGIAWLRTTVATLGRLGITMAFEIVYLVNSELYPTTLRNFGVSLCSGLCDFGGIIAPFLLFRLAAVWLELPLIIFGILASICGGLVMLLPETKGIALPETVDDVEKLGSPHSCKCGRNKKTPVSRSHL

[2] = molecular target: SERT (Homo sapiens, UniProt P31645); test: Stereoselective uptake into SERT-overexpressing HEK293 cells; conditions: for Clint ± SEM / Stereoselectivity Vmax / Stereoselectivity Km: SERT; for Clint ± SEM: quotient of vmax over Km; for Stereoselectivity Vmax / Stereoselectivity Km: ratio between enantiomers; for Stereoselectivity Vmax: given as for (R) or for 1; for Stereoselectivity Km: given as for (R) or for 1 (first-eluting); for selectivity ratio at 2 min: human, HEK293 cells stably overexpressing human SERT;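 for all read-outs here: uptake into HEK293 cells stably expressing human SERT over 2 min, enantiomers measured in cell lysate by chiral HPLC-MS/MS, normalized to total protein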
Method: (§1) All transport experiments were carried out in HEK293 cells stably overexpressing human MATs or OCTs. […] All cells were regularly cultivated in DMEM supplemented with 10% (v/v) FCS, penicillin (100 U/mL) and streptomycin (100 μg/mL)and kept in culture for no longer than 30 passages.
(§2) For the uptake experiments, 300,000 cells were plated in poly-D-lysine precoated 24-well plates 48 h ahead of the transport experiment. On the day of experiment, cells were initially washed once with 37 °C pre-warmed HBSS+ (Hanks buffered salt solution supplemented with 10 mM HEPES) and subsequently incubated with the substrates dissolved in pre-warmed HBSS+ for exactly two minutes. Incubation was stopped by adding ice-cold HBSS+ followed by two washing steps. After this, cells were lysed with 80% acetonitrile containing 10 ng/mL milnacipran as internal standard for high-performance liquid chromatography coupled to tandem mass spectrometry (HPLC-MS/MS) analysis. For every experiment, two additional wells per cell line were lysed using RIPA buffer for protein quantification. Total protein was quantified using the bicinchoninic acid assay [42]. This was later used for normalization of the uptake data.
Intracellularly accumulated test substances were quantified by HPLC-MS/MS analysis using a Shimadzu Nexera HPLC system with a SIL-30AC autosampler, a CTO-20AC column oven, a LC-30AD pump, and a CBM-20A controller (Shimadzu, Kyoto, Japan). […] CBH HPLC column (100 × 3 mm inner dimension with 5 μM particle size; Sigma-Aldrich, Darmstadt, Germany) with a corresponding 10 × 3 mm guard column. Reversed phased chromatography was carried out using an ammonium acetate (NH4Ac) buffered aqueous mobile phase with isopropyl alcohol (IPA) as organic solvent. […] The order of elution of the enantiomers was obtained from available reference literature [43] or by applying enantiopure reference compounds to the chiral HPLC.
(§3) Detection was performed with an API 4000 tandem mass spectrometer (AB SCIEX, Darmstadt, Germany) operating in multiple-reaction-monitoring mode. Quantification was performed using the Analyst 1.6.2 software (AB SCIEX, Darmstadt, Germany) and quantified by comparison to standard curves with known concentrations.
All uptake data were normalized to protein content to account for variation in the number of seeded sells. Transporter-mediated net uptake was calculated by subtracting uptake into empty vector-transfected control cells from uptake into transporter-transfected cells. […] Vmax refers to the maximum transport velocity and Km is defined as the substance concentration required to reach half of vmax. The intrinsic clearance Clint was calculated as the quotient of vmax over Km.

[3] = system: OCT2 wild-type versus A270S variant; test: Stereoselective uptake into OCT2 A270S variant-overexpressing HEK293 cells; conditions: human;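 note: uptake into HEK293 cells stably overexpressing human OCT2 variants, intracellular enantiomers quantified by chiral HPLC-MS/MS and normalized to total protein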
Method: as §1, §2
(§4) Intracellularly accumulated test substances were quantified by HPLC-MS/MS analysis using a Shimadzu Nexera HPLC system with a SIL-30AC autosampler, a CTO-20AC column oven, a LC-30AD pump, and a CBM-20A controller (Shimadzu, Kyoto, Japan). Stereoselective chromatography was carried out on a [sequence] CBH HPLC column (100 × 3 mm inner dimension with 5 μM particle size; Sigma-Aldrich, Darmstadt, Germany) with a corresponding 10 × 3 mm guard column. Reversed phased chromatography was carried out using an ammonium acetate (NH4Ac) buffered aqueous mobile phase with isopropyl alcohol (IPA) as organic solvent. […] The order of elution of the enantiomers was obtained from available reference literature [43] or by applying enantiopure reference compounds to the chiral HPLC. […] However, in every other case where the order of elution was available, the (R)-enantiomer eluted first. Given the structural similarity of the investigated substances and the fact that separation was performed on the same column with almost identical mobile phases, we assume that this order of elution for our compound set is always the (R)- before the (S)-enantiomer.
as §3
(§5) All uptake data were normalized to protein content to account for variation in the number of seeded sells. Transporter-mediated net uptake was calculated by subtracting uptake into empty vector-transfected control cells from uptake into transporter-transfected cells. Kinetic parameters were then determined after non-linear regression following the Michaelis–Menten equation (v = vmax × [S]/(Km + [S])) using GraphPad Prism (Version 5.01 for Windows, GraphPad Software, La Jolla, CA, USA). Vmax refers to the maximum transport velocity and Km is defined as the substance concentration required to reach half of vmax. The intrinsic clearance Clint was calculated as the quotient of vmax over Km.
(§6) HEK293 cells stably overexpressing wild-type or mutant OCT2 were incubated with 100 μM racemic substance for two minutes.

[4] = molecular target: T2, OCT1 (Homo sapiens, UniProt O15245); test: Stereoselective uptake into OCT1-overexpressing HEK293 cells; conditions: OCT1; for Clint ± SEM: quotient of vmax over Km; for selectivity ratio at 2 min: human, ratio between enantiomers;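 for all read-outs here: enantiomers quantified inside cells by chiral HPLC-MS/MS, uptake normalized to total protein from bicinchoninic acid assay, substrates applied in HBSS+ buffer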
T2 sequence (O15245 1-554): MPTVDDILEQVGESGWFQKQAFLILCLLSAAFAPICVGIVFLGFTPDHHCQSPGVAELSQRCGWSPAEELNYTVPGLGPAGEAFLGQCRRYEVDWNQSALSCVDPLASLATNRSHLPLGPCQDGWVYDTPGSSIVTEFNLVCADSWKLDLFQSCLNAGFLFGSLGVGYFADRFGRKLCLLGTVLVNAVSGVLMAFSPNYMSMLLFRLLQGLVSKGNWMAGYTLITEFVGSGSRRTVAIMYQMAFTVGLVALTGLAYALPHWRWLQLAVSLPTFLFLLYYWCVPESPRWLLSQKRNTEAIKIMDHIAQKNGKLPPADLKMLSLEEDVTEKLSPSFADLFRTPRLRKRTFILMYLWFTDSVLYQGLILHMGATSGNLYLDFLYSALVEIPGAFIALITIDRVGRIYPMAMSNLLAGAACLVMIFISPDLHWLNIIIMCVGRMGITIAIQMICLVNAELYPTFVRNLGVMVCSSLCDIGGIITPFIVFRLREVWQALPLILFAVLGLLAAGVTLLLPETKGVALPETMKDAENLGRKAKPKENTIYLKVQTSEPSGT

[5] = molecular target: NET (Homo sapiens, UniProt P23975); test: Stereoselective uptake into NET-overexpressing HEK293 cells; conditions: for Clint ± SEM / Stereoselectivity Vmax / Stereoselectivity Km: NET; for Clint ± SEM: quotient of vmax over Km; for Stereoselectivity Vmax / Stereoselectivity Km: ratio between enantiomers; for Stereoselectivity Vmax: given as for (R) or for 1; for Stereoselectivity Km: given as for (R) or for 1 (first-eluting); for selectivity ratio at 2 min: human, HEK293 cells stably overexpressing human NET;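 for all read-outs here: intracellular enantiomers quantified in cell lysates by chiral HPLC-MS/MS after a 2 min substrate incubation, with uptake normalized to total cellular protein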
[6] = molecular target: DAT (Homo sapiens, UniProt Q01959); test: Stereoselective uptake into DAT-overexpressing HEK293 cells; conditions: for Clint ± SEM / Stereoselectivity Vmax / Stereoselectivity Km: DAT; for Clint ± SEM: quotient of vmax over Km; for Stereoselectivity Vmax / Stereoselectivity Km: ratio between enantiomers; for Stereoselectivity Vmax: given as for (R) or for 1; for Stereoselectivity Km: given as for (R) or for 1 (first-eluting); for selectivity ratio at 2 min: human, HEK293 cells stably overexpressing human DAT;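 for all read-outs here: intracellular accumulation measured by chiral HPLC-MS/MS in stably transfected HEK293 cells, normalized to total protein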
[7] = molecular target: T3, OCT2 (Homo sapiens, UniProt O15244); test: Stereoselective uptake into OCT2 (wild-type)-overexpressing HEK293 cells; conditions: OCT2; for Clint ± SEM: quotient of vmax over Km; for selectivity ratio at 2 min: human, ratio between enantiomers
T3 sequence (O15244 1-555 S270A): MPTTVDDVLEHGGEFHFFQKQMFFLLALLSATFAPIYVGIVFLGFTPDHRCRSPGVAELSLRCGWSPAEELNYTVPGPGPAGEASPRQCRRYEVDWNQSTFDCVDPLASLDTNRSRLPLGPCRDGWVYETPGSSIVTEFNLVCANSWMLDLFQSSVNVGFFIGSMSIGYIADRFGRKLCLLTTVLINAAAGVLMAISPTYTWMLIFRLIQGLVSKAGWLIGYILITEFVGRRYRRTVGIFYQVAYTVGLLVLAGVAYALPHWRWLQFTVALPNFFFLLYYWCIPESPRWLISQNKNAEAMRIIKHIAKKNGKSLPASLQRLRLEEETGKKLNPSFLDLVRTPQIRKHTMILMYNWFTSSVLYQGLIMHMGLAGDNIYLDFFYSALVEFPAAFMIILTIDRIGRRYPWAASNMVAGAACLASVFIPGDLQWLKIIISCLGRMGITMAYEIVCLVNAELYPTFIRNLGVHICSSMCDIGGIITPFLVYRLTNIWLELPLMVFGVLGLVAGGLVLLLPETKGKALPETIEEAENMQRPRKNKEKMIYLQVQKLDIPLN

[8] = system: human neuroblastoma cells; parameters: method as in PMID 9085193; conditions: cited from earlier work
[9] = system: OCT2 A270S variant; test: in vitro; conditions: human, Stereoselectivity OCT2_A270S, 100 μM racemic substance, two minutes; uptake ratio of enantiomers, given as for (S)
Method: as §1, §2, §4, §3, §5, §6

[10] = molecular target: T4, OCT2 (wild-type) (Homo sapiens, UniProt O15244); test: Stereoselective uptake into OCT2 (wild-type)-overexpressing HEK293 cells; conditions: human, Stereoselectivity OCT2_WT, 100 μM racemic substance, two minutes; uptake ratio of enantiomers, given as for (S)
T4 sequence (O15244 1-555 S270A): T3 sequence (O15244 1-555 S270A)

[11] = substrate: CNC[C@@H](O)c1ccc(O)cc1; test: cells, lysate or membranes; conditions: other: HEK293 cells overexpressing human OCT2; racemic substrate, two minutes; net uptake minus empty vector control; 37.0 °C
[12] = substrate: NC[C@H](O)c1ccc(O)cc1; test: cells, lysate or membranes; conditions: other: HEK293 cells overexpressing human OCT2; racemic substrate, two minutes; net uptake minus empty vector control; 37.0 °C
[13] = substrate: NCC(O)c1cccc(O)c1; test: cells, lysate or membranes; conditions: other: HEK293 cells overexpressing human OCT2; racemic substrate, two minutes; net uptake minus empty vector control; 37.0 °C
[14] = substrate: CNC[C@@H](O)c1cccc(O)c1; test: cells, lysate or membranes; conditions: other: HEK293 cells overexpressing human OCT2; racemic substrate, two minutes; net uptake minus empty vector control; 37.0 °C
[15] = substrate: [H][C@](O)(CNC)c1ccc(O)cc1; test: cells, lysate or membranes; conditions: other: HEK293 cells overexpressing human OCT2; racemic substrate, two minutes; net uptake minus empty vector control; 37.0 °C
[16] = substrate: COc1cc(C(O)CN)ccc1O; test: cells, lysate or membranes; conditions: other: HEK293 cells overexpressing human OCT2; racemic substrate, two minutes; net uptake minus empty vector control; 37.0 °C
[17] = substrate: CNCC(O)c1ccc(O)c(OC)c1; test: cells, lysate or membranes; conditions: other: HEK293 cells overexpressing human OCT2; racemic substrate, two minutes; net uptake minus empty vector control; 37.0 °C
[18] = substrate: CNCC(O)c1ccccc1; test: cells, lysate or membranes; conditions: other: HEK293 cells overexpressing human OCT2; racemic substrate, two minutes; net uptake minus empty vector control; 37.0 °C
[19] = substrate: CNC[C@H](O)c1cccc(O)c1; test: cells, lysate or membranes; conditions: other: HEK293 cells overexpressing human OCT2; racemic substrate, two minutes; net uptake minus empty vector control; 37.0 °C
[20] = HEK293 cells stably overexpressing human OCT1, Stereoselectivity ClInt, given as for (R) or for 1 (also 1.00-fold for 1/2)
[21] = HEK293 cells stably overexpressing human OCT1, Stereoselectivity Km, given as for (R) or for 1 (first-eluting)
[22] = HEK293 cells stably overexpressing human OCT1, Stereoselectivity Vmax, given as for (R) or for 1
[23] = HEK293 cells stably overexpressing human wild-type OCT2, Stereoselectivity ClInt, given as for (R) or for 1
[24] = HEK293 cells stably overexpressing human wild-type OCT2, Stereoselectivity Km, given as for (R) or for 1 (first-eluting)
[25] = HEK293 cells stably overexpressing human wild-type OCT2, Stereoselectivity Vmax, given as for (R) or for 1

SERT, sequence (P31645 whole entry): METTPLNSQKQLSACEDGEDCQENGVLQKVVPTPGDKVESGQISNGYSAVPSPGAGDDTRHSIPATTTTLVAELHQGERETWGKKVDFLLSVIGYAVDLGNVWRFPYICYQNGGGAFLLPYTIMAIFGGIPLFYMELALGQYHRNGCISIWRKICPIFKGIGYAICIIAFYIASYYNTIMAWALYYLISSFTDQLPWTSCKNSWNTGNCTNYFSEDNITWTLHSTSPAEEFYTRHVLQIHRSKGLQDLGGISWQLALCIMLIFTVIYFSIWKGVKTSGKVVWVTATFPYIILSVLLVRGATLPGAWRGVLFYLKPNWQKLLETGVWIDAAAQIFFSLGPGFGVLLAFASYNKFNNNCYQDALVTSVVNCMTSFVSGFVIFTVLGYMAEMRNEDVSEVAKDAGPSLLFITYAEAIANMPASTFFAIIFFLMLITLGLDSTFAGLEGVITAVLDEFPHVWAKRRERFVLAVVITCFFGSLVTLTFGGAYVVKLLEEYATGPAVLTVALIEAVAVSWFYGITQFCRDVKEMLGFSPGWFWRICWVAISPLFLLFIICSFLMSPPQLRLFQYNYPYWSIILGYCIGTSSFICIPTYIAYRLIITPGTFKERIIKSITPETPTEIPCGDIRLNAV
NET, sequence (P23975 whole entry): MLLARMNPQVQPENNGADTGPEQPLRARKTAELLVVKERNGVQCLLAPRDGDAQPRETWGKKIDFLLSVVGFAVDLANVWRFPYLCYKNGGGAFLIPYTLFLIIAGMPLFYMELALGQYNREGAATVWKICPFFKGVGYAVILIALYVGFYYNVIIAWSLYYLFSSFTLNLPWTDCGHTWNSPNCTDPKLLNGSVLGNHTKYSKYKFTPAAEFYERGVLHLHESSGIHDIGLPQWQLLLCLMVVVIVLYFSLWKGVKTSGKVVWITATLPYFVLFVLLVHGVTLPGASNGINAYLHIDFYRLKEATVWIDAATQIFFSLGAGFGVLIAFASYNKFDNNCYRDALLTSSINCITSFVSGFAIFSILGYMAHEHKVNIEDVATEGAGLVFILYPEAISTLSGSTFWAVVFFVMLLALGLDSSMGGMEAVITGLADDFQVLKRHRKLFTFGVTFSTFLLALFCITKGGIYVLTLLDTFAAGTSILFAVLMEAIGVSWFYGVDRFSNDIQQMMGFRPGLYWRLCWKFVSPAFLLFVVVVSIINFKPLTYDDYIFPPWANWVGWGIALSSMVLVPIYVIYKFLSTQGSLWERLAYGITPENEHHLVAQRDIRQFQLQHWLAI
DAT, sequence (Q01959 whole entry): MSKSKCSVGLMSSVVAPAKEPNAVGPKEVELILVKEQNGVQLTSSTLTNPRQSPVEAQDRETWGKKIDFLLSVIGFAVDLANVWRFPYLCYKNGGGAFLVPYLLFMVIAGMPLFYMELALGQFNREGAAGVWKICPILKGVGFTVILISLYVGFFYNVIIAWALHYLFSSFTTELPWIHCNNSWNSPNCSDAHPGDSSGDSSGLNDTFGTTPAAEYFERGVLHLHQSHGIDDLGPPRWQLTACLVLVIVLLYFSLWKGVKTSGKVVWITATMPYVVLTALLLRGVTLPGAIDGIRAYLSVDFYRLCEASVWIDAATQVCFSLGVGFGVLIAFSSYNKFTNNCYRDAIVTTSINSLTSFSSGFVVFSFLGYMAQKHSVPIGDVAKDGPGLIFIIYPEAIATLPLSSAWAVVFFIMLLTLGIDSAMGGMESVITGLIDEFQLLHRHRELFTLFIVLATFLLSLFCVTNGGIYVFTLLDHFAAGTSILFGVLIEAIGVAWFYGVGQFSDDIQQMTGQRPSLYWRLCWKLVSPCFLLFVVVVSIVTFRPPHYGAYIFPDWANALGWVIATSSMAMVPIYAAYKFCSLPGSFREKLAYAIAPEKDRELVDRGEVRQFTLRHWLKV

Molecule: CC1NCCc2cc(O)c(O)cc21 (centres unmarked) [Salsolinol]
Cytotoxicity of (S)-enantiomer versus (R)-enantiomer [8]: almost two-fold higher
selectivity ratio at 2 min, 100 μM [9]: 1.1
selectivity ratio at 2 min, 100 μM [10]: 1.06

B1: OCT2 (Homo sapiens; S270A) (protein)
chain: T3 sequence (O15244 1-555 S270A)
Km [11]: 214 µM
Vmax [11]: 5307 pmol × mg Protein^−1 × min^−1
Km [12]: 636 µM
Vmax [12]: 25182 pmol × mg Protein^−1 × min^−1
Km [13]: 911 µM and 582 µM
Vmax [13]: 33143 pmol × mg Protein^−1 × min^−1 and 15157 pmol × mg Protein^−1 × min^−1
Km [14]: 112 µM
Vmax [14]: 3068 pmol × mg Protein^−1 × min^−1
Km [15]: 443 µM
Vmax [15]: 10877 pmol × mg Protein^−1 × min^−1
Km [16]: 464 µM and 613 µM
Vmax [16]: 2747 pmol × mg Protein^−1 × min^−1 and 5665 pmol × mg Protein^−1 × min^−1
Km [17]: 54.7 µM and 68.1 µM
Km [18]: 12.8 µM and 19.3 µM
Vmax [18]: 329 pmol × mg Protein^−1 × min^−1 and 261 pmol × mg Protein^−1 × min^−1
Km [19]: 212 µM
Vmax [19]: 6263 pmol × mg Protein^−1 × min^−1

Now from value to molecule, other results behind:

Clint ± SEM [1]: 38.8 mL × g Protein^−1 × min^−1
Stereoselectivity Vmax [1]: 1.10 fold
Clint ± SEM [2]: 4.14 mL × g Protein^−1 × min^−1
Stereoselectivity Vmax [2]: 2.38 fold
Stereoselectivity Km [2]: 1.39 fold
Clint ± SEM [4]: 4.53 mL × g Protein^−1 × min^−1
Clint ± SEM [5]: 166 mL × g Protein^−1 × min^−1
Stereoselectivity Vmax [5]: 1.30 fold
Stereoselectivity Km [5]: 1.55 fold
Clint ± SEM [6]: 100 mL × g Protein^−1 × min^−1
Stereoselectivity Vmax [6]: 1.05 fold
Stereoselectivity Km [6]: 1.05 fold
Clint ± SEM [7]: 39.6 mL × g Protein^−1 × min^−1
Molecule: NC[C@H](O)c1ccc(O)cc1 [(R)-Octopamine]
selectivity ratio at 2 min [1]: 1.38
selectivity ratio at 2 min [2]: 1.71
selectivity ratio at 2 min, 100 μM [3]: 1.2
selectivity ratio at 2 min [4, 20]: 1.05
selectivity ratio at 2 min [4, 21]: 1.04
selectivity ratio at 2 min [4, 22]: 1.09
selectivity ratio at 2 min [5]: 1.19
selectivity ratio at 2 min [6]: 1
selectivity ratio at 2 min [7, 23]: 1.31
selectivity ratio at 2 min [7, 24]: 1.63
selectivity ratio at 2 min [7, 25]: 2.14

Clint ± SEM [1]: 53.4 mL × g Protein^−1 × min^−1
Stereoselectivity Vmax [1]: 1.10 fold
Clint ± SEM [2]: 2.42 mL × g Protein^−1 × min^−1
Stereoselectivity Vmax [2]: 2.38 fold
Stereoselectivity Km [2]: 1.39 fold
Clint ± SEM [4]: 4.32 mL × g Protein^−1 × min^−1
Clint ± SEM [5]: 198 mL × g Protein^−1 × min^−1
Stereoselectivity Vmax [5]: 1.30 fold
Stereoselectivity Km [5]: 1.55 fold
Clint ± SEM [6]: 100 mL × g Protein^−1 × min^−1
Stereoselectivity Vmax [6]: 1.05 fold
Stereoselectivity Km [6]: 1.05 fold
Clint ± SEM [7]: 30.2 mL × g Protein^−1 × min^−1
Molecule: NC[C@@H](O)c1ccc(O)cc1 [(S)-Octopamine]
selectivity ratio at 2 min [1]: 1.38
selectivity ratio at 2 min [2]: 1.71
selectivity ratio at 2 min, 100 μM [3]: 1.17
selectivity ratio at 2 min [4, 20]: 1.05
selectivity ratio at 2 min [4, 21]: 1.04
selectivity ratio at 2 min [4, 22]: 1.09
selectivity ratio at 2 min [5]: 1.19
selectivity ratio at 2 min [6]: 1
selectivity ratio at 2 min [7, 23]: 1.31
selectivity ratio at 2 min [7, 24]: 1.63
selectivity ratio at 2 min [7, 25]: 2.14

Source: publication PMC9599461, “Stereoselectivity in the Membrane Transport of Phenylethylamine Derivatives by Human Monoamine Transporters and Organic Cation Transporters 1, 2, and 3” (Biomolecules, 2022)
